Tests used:
Format in all cases: cell-based, human
HeLa cells = experiment: Calcium imaging in HeLa cells
ERK1/2 = ERK1/2 phosphorylation in HeLa cells (Western blot); conditions: HeLa cells incubated with S1P; anti-active ERK and anti-phosphoTyr183 ERK antibodies
Description: Panel C: Western Blot analysis of HeLa cells treated with 0.5 μM S1P for 10 minutes. Prior incubation with S1P the cells were incubated for 20 minutes with 10 μM U73122, BAPTA-AM or U0126. Cells were harvested in boiling Laemmli buffer and subjected to Western analyses using anti-active ERK1/2 antibody. Anti-Hsp70 antibody was used as loading control.

adenylyl cyclase (AC) = experiment: AC activity of HeLa cell lysates after treatment of cells; conditions: HeLa cells
Description: Panel B: Adenylyl cyclase activity of HeLa cell lysates was measured in the absence and presence of serum as described in Materials and Methods section. The Gsα* (80 nM; grey bars)- and forskolin (100 μM; black bars)-stimulated specific activities of ACV were 124±10 pmol/mg/min and 464±89 pmol/min/mg, respectively. The basal activity was 11.75±2 pmol/mg/min. The mean ±SE of at least 2 experiments each done in triplicates is shown. Student T test: *p<0.001.
Panel E: Serum-starved HeLa cells were treated with sense, antisense, and 3M-as ODNs as described above. After 24 hours the cells were incubated for 30 minutes with 10% FBS. Cells were harvested and AC activity in presence of Gαs* (80 nM; grey bars) and forskolin (100 μM; black bars) was determined as described above. Data from at least 3 experiments measured in triplicates are presented as the mean±SEM. Student T test: *p<0.01, **p<0.05.
Panel B: Serum-starved HeLa cells were treated for varying times with 0.5 μM S1P. Cells were harvested and AC activity in presence of 80 nM Gαs* was determined as described in Material and Methods. Data from at least 4 experiments measured in triplicates are presented as the mean ±SE.
Panel C: Serum-starved HeLa cells were treated with sense, antisense, and 3M-as ODNs as described in the Materials and Methods section. After 24 hours the cells were incubated for the indicated times with 0.5 μM S1P. Cells were harvested and AC activity in presence of Gαs* (80 nM) was determined as described above. Data are presented as the mean ±SEM of three determinations.
Panel A: Serum-starved HeLa cells were treated with 0.5 μM S1P for 3 (grey bars) or 60 (black bars) minutes. Prior incubation with S1P the cells were incubated for 24 hours with […] pertussis toxin (PTX). AC activity in was determined presence of 80 nM Gαs*. Data from at least 2 experiments measured in triplicates are presented as the mean ±SE.
Panel B: Serum-starved HeLa cells were treated with 0.5 μM S1P. Prior incubation with S1P the cells were incubated for 20 minutes with 10 μM U73122, R031-8220, BAPTA-AM or U0126. AC activity in was determined presence of 80 nM Gαs*. Data from at least 2 experiments measured in triplicates are presented as the mean ±SE.
Spinal cords were lysed in 25 mM Hepes, pH 7.4, 1 mM EGTA and cell membranes were prepared as described by Kassis and Fishman. Aliquots were stored at −80° C. until use. AC activity assays were performed in a volume of 100 μl for 15 min at room temperature in the presence of 100 μM MgCl2 as previously described (Patel et al., 2002). Gsα* (80 nM) or forskolin (100 μM) were used to stimulate AC enzyme activity in membranes (10 μg protein).
The sequences of the oligodeoxynucleotides (ODNs) were chosen as published previously (Scholich et al., 2001). Sense: 5′-CTGTTCATGCCGGTT-3′, antisense: 5′-AACCGGCATGAACAG-3′, and antisense ODN harboring three mutations (3M-as; mutations are underlined): 5′-AATCCGTATGAACAC-3′. HeLa-cells were plated on 35 mm dishes (300,000 cells) and grown in DMEM medium (Gibco, Karlsruhe, Germany) containing 10% FBS and 1% penicillin/streptoMycin for 24 hours. The ODNs (3 μM each) were introduced into the cells by transfections using Tfx20 (Promega, Madison, Wis.) in 1 ml serum-free medium according to the instructions of the manufacturer. Two hours later, 1 ml DMEM (Gibco, Karlsruhe, Germany) containing 10% FBS was added. The cells were then incubated for 6 hours. Then the medium was exchanged against serum-free DMEM (Gibco, Karlsruhe, Germany), followed by an incubation for 16 hours in serum-free DMEM (Gibco, Karlsruhe, Germany) before being treated with 10% serum or […] S1P. The cells were then used for Western blots by adding boiling 1× Laemmli buffer or they were havested for AC activity assays as described above.

In the case of `CCCCCCCCCCCCC/C=C/[C@@H](O)[C@@H](N)COP(=O)(O)O` [S1P, Sphingosine-1-Phosphate], the intracellular calcium (HeLa cells) is reported as “induced a PLC-dependent calcium increase”, the ERK1/2 phosphorylation (ERK1/2) is reported as “detectable” and the “Gαs-stimulated AC activity” value (adenylyl cyclase (AC); 0.5 μM S1P) is reported as “reduced”. The “time to first decrease of Gαs-stimulated AC activity” value (adenylyl cyclase (AC); after incubation with S1P) was at most 3 min.
